How the values were obtained:
VEGFR2, unphosphorylated = VEGFR2, unphosphorylated (Homo sapiens (Human), UniProt P35968); test: VEGFR ADP GLO Assay; assay type: biochemical
PDGFRβ = PDGFRβ (Rattus norvegicus (Rat), UniProt Q05030); test: PDGFRβ Cellular Assay (PDGFRb P-Y751 HTRF in A10 cells stimulated with PDGF-BB); assay type: cell-based; conditions: read-out: PDGFR Cellular IC50
Method in brief: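 Phospho-Y751 PDGFRβ was measured by HTRF in lysates of A10 rat cells. Cells received compound for 3 hours before PDGF-BB stimulation (100 ng/mL working stock).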

[1] = target: Tb-labeled inactive PDGFRβ (Homo sapiens (Human), UniProt P09619); test: PDGFRβ LanthaScreen Assay; assay type: binding; conditions: read-out: PDGFR Lantha IC50
Chain of Tb-labeled inactive PDGFRβ (P09619 33-1106): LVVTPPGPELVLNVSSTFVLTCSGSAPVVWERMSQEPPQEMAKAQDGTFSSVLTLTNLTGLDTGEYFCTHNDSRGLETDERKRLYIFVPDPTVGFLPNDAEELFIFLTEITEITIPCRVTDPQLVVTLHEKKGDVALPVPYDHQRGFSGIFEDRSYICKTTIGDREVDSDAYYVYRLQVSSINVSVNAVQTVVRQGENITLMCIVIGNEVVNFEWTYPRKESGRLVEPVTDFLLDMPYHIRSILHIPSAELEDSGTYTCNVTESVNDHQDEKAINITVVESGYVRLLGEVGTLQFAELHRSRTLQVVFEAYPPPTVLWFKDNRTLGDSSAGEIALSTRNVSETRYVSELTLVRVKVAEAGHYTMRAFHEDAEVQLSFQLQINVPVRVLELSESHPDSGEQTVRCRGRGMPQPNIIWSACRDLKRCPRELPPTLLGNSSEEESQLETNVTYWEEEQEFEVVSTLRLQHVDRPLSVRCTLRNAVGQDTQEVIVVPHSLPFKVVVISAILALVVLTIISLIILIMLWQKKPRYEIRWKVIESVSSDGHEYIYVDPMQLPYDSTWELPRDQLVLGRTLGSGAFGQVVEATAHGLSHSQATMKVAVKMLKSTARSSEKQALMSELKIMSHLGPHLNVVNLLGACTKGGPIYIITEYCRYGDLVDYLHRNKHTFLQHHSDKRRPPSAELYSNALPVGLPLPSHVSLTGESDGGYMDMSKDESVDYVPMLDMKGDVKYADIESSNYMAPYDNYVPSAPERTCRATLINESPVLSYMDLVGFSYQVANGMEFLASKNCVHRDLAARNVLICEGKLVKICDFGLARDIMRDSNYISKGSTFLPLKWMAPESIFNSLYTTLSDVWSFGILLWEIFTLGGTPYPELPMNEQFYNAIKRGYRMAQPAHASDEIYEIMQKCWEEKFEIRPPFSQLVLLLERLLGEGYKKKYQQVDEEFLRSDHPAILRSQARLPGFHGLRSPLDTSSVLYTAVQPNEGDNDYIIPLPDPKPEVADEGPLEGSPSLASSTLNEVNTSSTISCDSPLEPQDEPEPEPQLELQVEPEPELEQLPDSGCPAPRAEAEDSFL

Chain of VEGFR2, unphosphorylated (P35968 20-1356): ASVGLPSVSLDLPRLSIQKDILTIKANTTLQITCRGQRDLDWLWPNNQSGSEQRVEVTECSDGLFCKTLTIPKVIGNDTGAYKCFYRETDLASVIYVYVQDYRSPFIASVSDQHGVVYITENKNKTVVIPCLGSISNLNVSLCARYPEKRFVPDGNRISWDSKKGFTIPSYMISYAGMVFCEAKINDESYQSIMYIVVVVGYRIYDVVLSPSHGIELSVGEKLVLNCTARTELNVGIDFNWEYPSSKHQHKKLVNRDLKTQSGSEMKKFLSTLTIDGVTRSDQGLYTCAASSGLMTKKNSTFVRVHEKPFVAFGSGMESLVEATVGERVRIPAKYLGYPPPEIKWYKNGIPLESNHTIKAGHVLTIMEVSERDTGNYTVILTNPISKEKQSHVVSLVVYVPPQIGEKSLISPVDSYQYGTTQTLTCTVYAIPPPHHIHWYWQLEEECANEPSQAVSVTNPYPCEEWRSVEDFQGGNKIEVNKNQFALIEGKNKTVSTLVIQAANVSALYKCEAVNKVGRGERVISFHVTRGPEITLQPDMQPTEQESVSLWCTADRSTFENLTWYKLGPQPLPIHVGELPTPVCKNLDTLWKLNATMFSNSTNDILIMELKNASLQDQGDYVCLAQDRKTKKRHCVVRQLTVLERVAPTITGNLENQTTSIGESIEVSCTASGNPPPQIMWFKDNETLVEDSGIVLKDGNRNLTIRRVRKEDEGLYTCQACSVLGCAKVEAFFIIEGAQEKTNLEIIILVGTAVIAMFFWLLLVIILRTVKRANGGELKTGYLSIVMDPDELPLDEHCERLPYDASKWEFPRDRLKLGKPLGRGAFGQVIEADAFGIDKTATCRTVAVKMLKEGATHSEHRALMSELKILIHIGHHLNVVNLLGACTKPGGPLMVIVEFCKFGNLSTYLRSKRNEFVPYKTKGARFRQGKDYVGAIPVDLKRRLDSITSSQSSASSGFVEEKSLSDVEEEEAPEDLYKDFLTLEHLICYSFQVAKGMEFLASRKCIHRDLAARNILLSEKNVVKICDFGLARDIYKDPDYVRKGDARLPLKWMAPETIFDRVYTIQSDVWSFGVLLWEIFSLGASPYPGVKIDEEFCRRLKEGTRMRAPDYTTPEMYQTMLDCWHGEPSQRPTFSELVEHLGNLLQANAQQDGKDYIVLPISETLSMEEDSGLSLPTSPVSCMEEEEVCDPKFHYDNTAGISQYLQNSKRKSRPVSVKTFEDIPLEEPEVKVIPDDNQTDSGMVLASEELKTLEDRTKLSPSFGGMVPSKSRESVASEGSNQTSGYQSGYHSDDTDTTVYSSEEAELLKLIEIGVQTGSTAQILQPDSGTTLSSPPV
Chain of PDGFRβ (Q05030 32-1097): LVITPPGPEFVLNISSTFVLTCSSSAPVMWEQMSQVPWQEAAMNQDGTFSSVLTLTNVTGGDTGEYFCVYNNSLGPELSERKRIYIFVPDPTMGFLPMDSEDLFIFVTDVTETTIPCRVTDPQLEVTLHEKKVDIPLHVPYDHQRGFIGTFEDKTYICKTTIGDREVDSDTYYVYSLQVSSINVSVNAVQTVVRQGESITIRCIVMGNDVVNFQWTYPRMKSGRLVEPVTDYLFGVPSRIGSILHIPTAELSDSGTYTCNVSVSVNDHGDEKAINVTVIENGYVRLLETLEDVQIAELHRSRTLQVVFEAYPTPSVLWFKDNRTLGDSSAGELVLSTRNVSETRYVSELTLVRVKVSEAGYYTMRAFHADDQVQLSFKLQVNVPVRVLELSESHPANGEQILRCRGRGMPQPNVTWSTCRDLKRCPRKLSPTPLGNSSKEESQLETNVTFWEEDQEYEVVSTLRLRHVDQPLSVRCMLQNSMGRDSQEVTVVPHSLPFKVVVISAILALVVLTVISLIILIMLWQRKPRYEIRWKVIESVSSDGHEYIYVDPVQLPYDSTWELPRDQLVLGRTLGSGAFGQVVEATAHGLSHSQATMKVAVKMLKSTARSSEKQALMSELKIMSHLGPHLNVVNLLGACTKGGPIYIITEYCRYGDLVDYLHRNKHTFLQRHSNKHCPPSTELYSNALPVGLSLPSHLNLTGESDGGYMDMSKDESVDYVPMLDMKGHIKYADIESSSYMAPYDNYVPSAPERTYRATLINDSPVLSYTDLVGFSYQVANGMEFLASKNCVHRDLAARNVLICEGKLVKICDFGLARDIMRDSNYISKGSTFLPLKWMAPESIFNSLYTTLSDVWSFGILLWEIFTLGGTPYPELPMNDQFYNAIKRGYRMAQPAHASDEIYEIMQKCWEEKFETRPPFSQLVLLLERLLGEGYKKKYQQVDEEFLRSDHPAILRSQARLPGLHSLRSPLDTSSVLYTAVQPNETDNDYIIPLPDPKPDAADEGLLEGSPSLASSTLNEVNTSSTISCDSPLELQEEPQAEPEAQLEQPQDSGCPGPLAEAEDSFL

| Structure (SMILES) | IC50 (VEGFR2, unphosphorylated) | IC50 (PDGFRβ) | IC50 [1] |
| --- | --- | --- | --- |
| COCCn1cc(-c2cn3ncc(C(=O)Nc4cc(C(=O)NCCN5CC(C)(C)C5)cnc4C)c3s2)cn1 [Example 166, N-(5-((2-(3,3-dimethylazetidin-1-yl)ethyl)carbamoyl)-2-methylpyridin-3-yl)-2-(1-(2-methoxyethyl)-1H-pyrazol-4-yl)pyrazolo[5,1-b]thiazole-7-carboxamide] | > 7500 nM | 233 nM | 13.9 nM |
| COCCn1cc(-c2cn3ncc(C(=O)Nc4cc(C(=O)NCCN5CCC(F)(F)C5)cnc4C)c3s2)cn1 [Example 167, N-(5-((2-(3,3-difluoropyrrolidin-1-yl)ethyl)carbamoyl)-2-methylpyridin-3-yl)-2-(1-(2-methoxyethyl)-1H-pyrazol-4-yl)pyrazolo[5,1-b]thiazole-7-carboxamide] | > 7500 nM | 24.7 nM | 4.2 nM |
| COCCn1cc(-c2cn3ncc(C(=O)Nc4cc(C(=O)NCCN5CC6(CCC6)C5)cnc4C)c3s2)cn1 [Example 168, N-(5-((2-(2-azaspiro[3.3]heptan-2-yl)ethyl)carbamoyl)-2-methylpyridin-3-yl)-2-(1-(2-methoxyethyl)-1H-pyrazol-4-yl)pyrazolo[5,1-b]thiazole-7-carboxamide] | > 7500 nM | 371 nM | 17.4 nM |
| Cc1ncc(C(=O)NCCN2CCC23CCC3)cc1NC(=O)c1cnn2cc(-c3cnn(C)c3C)sc12 [Example 169, N-(5-((2-(1-azaspiro[3.3]heptan-1-yl)ethyl)carbamoyl)-2-methylpyridin-3-yl)-2-(1,5-dimethyl-1H-pyrazol-4-yl)pyrazolo[5,1-b]thiazole-7-carboxamide] | > 7500 nM | 15 nM | 2.8 nM |
| Cc1ncc(C(=O)NCCN2CCC3(CC3)C2)cc1NC(=O)c1cnn2cc(-c3cnn(C)c3C)sc12 [Example 170, N-(5-((2-(5-azaspiro[2.4]heptan-5-yl)ethyl)carbamoyl)-2-methylpyridin-3-yl)-2-(1,5-dimethyl-1H-pyrazol-4-yl)pyrazolo[5,1-b]thiazole-7-carboxamide] | > 7500 nM | 33.7 nM | 4.1 nM |
| Cc1ncc(C(=O)NCCN2CC3CCC2CC3)cc1NC(=O)c1cnn2cc(-c3cnn(C)c3C)sc12 [Example 171, N-(5-((2-(2-azabicyclo[2.2.2]octan-2-yl)ethyl)carbamoyl)-2-methylpyridin-3-yl)-2-(1,5-dimethyl-1H-pyrazol-4-yl)pyrazolo[5,1-b]thiazole-7-carboxamide] | > 7500 nM | 34.8 nM | 2.6 nM |
| Cc1ncc(C(=O)NCCN2C3CCC2CC3)cc1NC(=O)c1cnn2cc(-c3cnn(C)c3C)sc12 [Example 172, N-(5-((2-(7-azabicyclo[2.2.1]heptan-7-yl)ethyl)carbamoyl)-2-methylpyridin-3-yl)-2-(1,5-dimethyl-1H-pyrazol-4-yl)pyrazolo[5,1-b]thiazole-7-carboxamide] | > 7500 nM | 66.6 nM | 3 nM |
| Cc1ncc(C(=O)NCCN2CCCC2(C)C)cc1NC(=O)c1cnn2cc(-c3cnn(C)c3C)sc12 [Example 173, 2-(1,5-dimethyl-1H-pyrazol-4-yl)-N-(5-((2-(2,2-dimethylpyrrolidin-1-yl)ethyl)carbamoyl)-2-methylpyridin-3-yl)pyrazolo[5,1-b]thiazole-7-carboxamide] | > 7500 nM | 11.8 nM | 3.1 nM |
| Cc1ncc(C(=O)NCCN2CCCC2(C)C)cc1NC(=O)c1cnn2cc(-c3cn(C)nc3C)sc12 [Example 174, 2-(1,3-dimethyl-1H-pyrazol-4-yl)-N-(5-((2-(2,2-dimethylpyrrolidin-1-yl)ethyl)carbamoyl)-2-methylpyridin-3-yl)pyrazolo[5,1-b]thiazole-7-carboxamide] | > 7500 nM | 9.9 nM | 2.5 nM |
| Cc1ncc(C(=O)NCCN2CCC23CCC3)cc1NC(=O)c1cnn2cc(-c3cn(C)nc3C)sc12 [Example 175, N-(5-((2-(1-azaspiro[3.3]heptan-1-yl)ethyl)carbamoyl)-2-methylpyridin-3-yl)-2-(1,3-dimethyl-1H-pyrazol-4-yl)pyrazolo[5,1-b]thiazole-7-carboxamide] | > 7500 nM | 16.6 nM | 3.8 nM |
| Cc1ncc(C(=O)NCCN2CCCC23COC3)cc1NC(=O)c1cnn2cc(-c3cn(C)nc3C)sc12 [Example 176, N-(5-((2-(2-oxa-5-azaspiro[3.4]octan-5-yl)ethyl)carbamoyl)-2-methylpyridin-3-yl)-2-(1,3-dimethyl-1H-pyrazol-4-yl)pyrazolo[5,1-b]thiazole-7-carboxamide] | > 7500 nM | 29.1 nM | 3.1 nM |
| Cc1ncc(C(=O)NCCN2CCC3(CC3)C2)cc1NC(=O)c1cnn2cc(-c3cn(C)nc3C)sc12 [Example 177, N-(5-((2-(5-azaspiro[2.4]heptan-5-yl)ethyl)carbamoyl)-2-methylpyridin-3-yl)-2-(1,3-dimethyl-1H-pyrazol-4-yl)pyrazolo[5,1-b]thiazole-7-carboxamide] | > 7500 nM | 18.2 nM | 2.6 nM |
| Cc1ncc(C(=O)NCCN2CC3CCC2CC3)cc1NC(=O)c1cnn2cc(-c3cn(C)nc3C)sc12 [Example 178, N-(5-((2-(2-azabicyclo[2.2.2]octan-2-yl)ethyl)carbamoyl)-2-methylpyridin-3-yl)-2-(1,3-dimethyl-1H-pyrazol-4-yl)pyrazolo[5,1-b]thiazole-7-carboxamide] | > 7500 nM | 18.7 nM | 1.8 nM |
| Cc1ncc(C(=O)NCCN2CCCC23COC3)cc1NC(=O)c1cnn2cc(-c3c(C)nn(C)c3C)sc12 [Example 179, N-(5-((2-(2-oxa-5-azaspiro[3.4]octan-5-yl)ethyl)carbamoyl)-2-methylpyridin-3-yl)-2-(1,3,5-trimethyl-1H-pyrazol-4-yl)pyrazolo[5,1-b]thiazole-7-carboxamide] | > 7500 nM | 54.5 nM | 6.9 nM |

From patent US20240109917A1 (ACTELION PHARMACEUTICALS LTD, priority 2020, published 2024)
